Assay results reported in ChEMBL document CHEMBL3507680, “University of Dundee, Gates Library screen for HepG2 cell viability”.

assay: Human HepG2 cell viability assay in 384 well format; format: toxicity, cell-based; design: dose 125 nL, time 70.5 hour; concentration not given beside the values; settings: HepG2 cells, read-out: Inhibition

| SMILES | cytotoxicity at 70.5 h [%] |
| --- | --- |
| Cc1nn(C)c(C)c1C1CCCN1C(=O)c1ccc(C(N)=O)s1 (stereo not given) | 17.5 |
| COc1ccc(Cl)cc1NCC(=O)N(Cc1cccnc1)C1CC1 | -7.28 |
| CC(C)c1noc(CCC(=O)NC2CCS(=O)(=O)C2)n1 (stereo not given) | 0.473 |
| COCCN1C[C@H]2CC[C@@H]1CN(C(=O)c1ccc(Cl)cc1)C2 | -6 |
| Cc1cc(C(=O)N[C@H]2CC[C@@]3(CCC(=O)N3)CC2)no1 | -6.09 |
| CCC(SC)C(=O)N1CCC(n2ccnn2)CC1 (stereo not given) | -7.09 |
| CNC(=O)C1CN(c2ccnc(C)n2)CCN(C2CCOCC2)C1 (stereo not given) | -1.96 |
| CSCC[C@@H](CO)Nc1ccc(-c2nc(-c3ccccc3F)no2)cn1 | -6.28 |
| O=C(NCCN1CCOCC1)c1cc(-c2ccccc2Cl)[nH]n1 | 1.45 |
| Cc1ccc(CN2CCOC3(CCN(CC4CCOC4)CC3)C2)cc1 (stereo not given) | -1.57 |
| NC(=O)C1CCN(C(=O)CSC2CCCc3ccccc32)CC1 (stereo not given) | 1.96 |
| CC(NC(=O)CSCC#N)c1ccc(Cl)cc1 (stereo not given) | -4.42 |
| CCn1c(=O)nc(N)c2c(-c3ccc(OC)cc3)csc21 | -10.3 |
| CC(C)c1cc(C2CCN(C(=O)Cn3cncn3)CC2)[nH]n1 | 43.3 |
| CC(C)(CO)NCc1ccc(OCc2ccc3c(c2)OCCO3)cc1 | -2.91 |
| CC(=O)N1CCC2(CC1)C(=O)N(c1cccnc1)c1ccc(F)cc12 | -4.87 |
| Cc1ccc(C(C)NC(=O)CSCC(N)=O)cc1 (stereo not given) | -0.981 |
| CCCn1cc(C(=O)N2CCCC2(C)c2nc(C)cc(N)n2)cn1 (stereo not given) | -1.03 |
| COCCCOC1CN(C(=O)c2[nH]nc3c2CCCC3)C1 | 4 |
| CCc1noc(C(C)N2CCC(NS(=O)(=O)c3cccs3)CC2)n1 (stereo not given) | -11.6 |
| CN1CCC(CNC(=O)c2cccc(CN3CCCCCC3)c2)C1 (stereo not given) | -5.88 |
| CN1CCCC(Cc2cncc(Br)c2)CC1 (stereo not given) | 0.975 |
| Cc1cnn(Cc2cc(F)ccc2F)c1NC(=O)C1COCCO1 (stereo not given) | -0.231 |

| SMILES | cytotoxicity at 70.5 h [%] |
| --- | --- |
| C=CNC(=O)c1nnc2ccc(N3CCOCC3)cc2n1 | -10.8 |
| OCCn1nccc1C1CCN(CCOc2ccccc2)CC1 | 8.03 |
| Cc1ccc(CNC(=O)Cn2c(=O)c3cccnc3n2C)cc1F | -12.5 |
| Cc1nc(-c2cccc(N3CCC(N4CCCC4)CC3)c2)cs1 | 13.8 |
| CC(=O)N1CCCN(C(=O)CCOc2ccc(C(C)C)cc2)CC1 | 21.2 |
| CCCn1ncc(C(=O)N2CCN(C3CCSCC3)CC2)c1C | 2.68 |
| Cc1nn(C)c(C)c1C(=O)NCc1cccnc1OC1CCCC1 | -5.73 |
| CCCc1c(C(=O)N2CCN(Cc3ccccn3)CC2)cnn1C | -14.7 |
| O=C(C1CC1)N1CCC(c2nc(O)c3c(n2)CCN(C2CCCC2)C3)C1 (stereo not given) | -6.87 |
| Cc1ccc(NCc2cn3c(n2)CN(Cc2ccoc2)CC3)nn1 | 12 |
| COCC(C)(CCO)NC(=O)Nc1cccc(Br)c1C (stereo not given) | 7.98 |
| O=C(O)c1ccc(CNC(=O)C2CCN(Cc3ccco3)CC2)s1 | -3.49 |
| Cc1ccc2c(ccn2CCC(=O)NC[C@@H]2CCCN3CCCC[C@H]23)c1 | 1.22 |
| COc1ccc2nnc(CCC(=O)Nc3nc4c(s3)CCC4)n2n1 | -25.1 |
| O=C1CCN(C(=O)NCCCc2ccc(Cl)cc2Cl)CCN1 | -7.65 |
| Cc1nc2ccccc2nc1CN1CCn2nc(CCC(=O)O)cc2C1 | -7.38 |
| CC(C)=CCC1(C(=O)O)CCCN(c2cc(N)ncn2)C1 (stereo not given) | 6.26 |
| O=C1CC2(CCN(c3nncs3)C2)CN1c1ccccc1 (stereo not given) | -1.13 |
| Cc1c(-c2ccccc2)ncn1CC(c1cccnc1)N1CCOCC1 (stereo not given) | -2.03 |
| CC(O)CNCc1c[nH]nc1-c1cc2ccccc2o1 (stereo not given) | 17.5 |
| COCC1N(C(=O)c2ccc3c(c2)OCCCO3)[C@H]2CC[C@]1(O)CC2 (stereo not given in full) | -6.94 |
| CC(C)C(=O)N1CC[C@H]2N(C)CC[C@@]2(C(=O)N2CCOCC2)CC1 | 2.86 |
